Experimental data as given in patent US7868005B2, “Pyrazinyl substituted piperazine-piperidines with CXCR3 antagonist activity” (Schering Corporation, priority 2005, dated 2011).
pIC50: −log10 of the molar value.

The compounds below were run against T1, human CXCR3 (N-delta 4) (Homo sapiens, UniProt P49682) (assay: Human CXCR3 (N-delta 4) Scintillation Proximity Assay (SPA), [125I] IP-10 binding to Ba/F3-hCXCR3 membranes). Details: IC50 rating, Table 1; read-out: IC50.
T1 construct: CD8 leader (N); Flag; expressed in transfected cells; membranes prepared
T1 sequence (P49682 5-368 limits assumed): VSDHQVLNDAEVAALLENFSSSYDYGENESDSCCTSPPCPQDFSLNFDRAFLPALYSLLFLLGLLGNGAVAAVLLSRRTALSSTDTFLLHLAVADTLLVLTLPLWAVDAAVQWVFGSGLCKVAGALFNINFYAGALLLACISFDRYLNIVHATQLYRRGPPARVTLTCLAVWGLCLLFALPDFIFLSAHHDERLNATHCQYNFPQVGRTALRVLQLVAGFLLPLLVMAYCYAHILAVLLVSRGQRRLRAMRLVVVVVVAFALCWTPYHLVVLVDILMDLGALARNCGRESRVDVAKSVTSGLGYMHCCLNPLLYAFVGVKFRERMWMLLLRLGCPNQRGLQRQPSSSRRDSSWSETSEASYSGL

pIC50, > 7.60:
CC[C@H]1CN(c2ncc(C(N)=O)nc2Cl)CCN1C1CCN([C@@H](C(=O)OC)c2ccc(Cl)cc2)CC1 [compound 476]
CC[C@H]1CN(c2ncc(C(=O)NC)nc2C(F)(F)F)CCN1C1CCN(C(=O)c2ccc(Cl)cc2)CC1 [compound 477]
CC[C@H]1CN(c2ncc(C(N)=O)nc2C(F)(F)F)[C@H](C)CN1C1CCN(C(=O)c2ccc(Cl)cc2)CC1 [compound 478]
CC[C@H]1CN(c2ncc(C(=O)NC3(C)CC3)nc2C)[C@H](C)CN1C1CCN(C(=O)c2ccc(Cl)cc2)CC1 [compound 479]
CC[C@H]1CN(c2nc(N)c(C(=O)NC3CC3)nc2C)[C@H](C)CN1C1CCN(C(=O)c2ccc(Cl)cc2)CC1 [compound 480]
CC[C@H]1CN(c2ncc(C(=O)NC3CC3)nc2C)[C@H](C)CN1C1CCN([C@H](CO)c2ccc(Cl)cc2)CC1 [compound 481]
CC[C@H]1CN(c2nc(N)c(C(=O)NCCO)nc2C)[C@H](C)CN1C1CCN(C(=O)c2ccc(Cl)cc2)CC1 [compound 482]
CC[C@H]1CN(c2ncc(C(=O)NC3CC3)nc2C)CCN1C1CCN(C(=O)c2ccc(C(F)(F)F)cc2)CC1 [compound 483]
CCNC(=O)c1cnc(N2CCN(C3CCN(C(=O)c4ccc(Cl)cc4)CC3)[C@@H](CC)C2)c(C(F)(F)F)n1 [compound 484]
CC[C@H]1CN(c2ncc(C(=O)NC3CC3)nc2C)CCN1C1CCN([C@@H](C(=O)OC)c2ccc(Cl)cc2)CC1 [compound 485]
CC[C@H]1CN(c2ncc(C(=O)NC3CC3)nc2C)CCN1C1CCN([C@@H](C(=O)OC)c2ccc(F)c(F)c2)CC1 [compound 486]
CCc1ccc(C(=O)N2CCC(N3CCN(c4ncc(C(=O)NC5CC5)nc4C(F)(F)F)C[C@@H]3CC)CC2)cc1 [compound 487]
CC[C@H]1CN(c2ncc(C(=O)NCCO)nc2C)[C@H](C)CN1C1CCN(Cc2ccc(OC(F)(F)F)cc2)CC1 [compound 488]
CC[C@H]1CN(c2ncc(C(=O)NC3CC3)nc2C(F)(F)F)CCN1C1CCN(C(=O)c2ccc(Cl)cc2)CC1 [compound 489]
CC[C@H]1CN(c2ncc(C(=O)NC3CC3)nc2C(F)(F)F)CCN1C1CCN(C(=O)c2ccc(F)c(F)c2)CC1 [compound 490]
CC[C@H]1CN(c2ncc(C(=O)NC3CC3)nc2C)CCN1C1CCN(Cc2ccc(Cl)c(OCCS(C)(=O)=O)c2)CC1 [compound 492]
